Test results published in patent publication US20260232666A1, “COMPOSITIONS AND METHODS FOR INHIBITION OF RAS” (TheRas, Inc., priority 2023, published 2026).
pIC50: −log10 of the molar value.

Assays:
[1] = molecular target: T1, GppNHp-loaded KRAS4b (amino acids 1-169) G12C/C118S protein (Homo sapiens, UniProt P01116, C118S/G12C); assay: Covalent cysteine 12 modification by MALDI-TOF MS, GppNHp-loaded KRAS G12C; assay type: binding; details: 15 minutes reaction time point
T1 construct: KRAS4b (amino acids 1-169) G12C/C118S protein; made in house
Procedure, shortened: (§1)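 Percent modification comes from MALDI-TOF peak heights: the compound-adduct peak divided by the sum of the remaining-protein and adduct peaks. Reactions contained 1 μM protein and compound at a 1:2.5 ratio, in pH 7.3 HEPES buffer with NaCl and MgCl2, held 15 min at room temperature.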

[2] = molecular target: T2, GTP-loaded KRAS4b (amino acids 1-169) G12C/C118S protein (Homo sapiens, UniProt P01116, C118S/G12C); assay: Covalent cysteine 12 modification by MALDI-TOF MS, GTP-loaded KRAS G12C; assay type: binding; details: 15 minutes reaction time point
T2 construct: KRAS4b (amino acids 1-169) G12C/C118S protein; made in house
Procedure, shortened: as §1

[3] = molecular target: T3, Avi-KRAS G12C (1-169) GppNHp/RAF1 RBD-3×FLAG (52-151) (Homo sapiens, UniProt P01116, G12C); assay: Raf1 RBD-KRAS G12C-GppNHp disruption assay (protein:protein interaction HTRF); assay type: biochemical
T3 construct: Avi-KRAS G12C (1-169) GppNHp; Avi (N)
Procedure, shortened: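 HTRF measuring RAF1 RBD binding to GppNHp-loaded KRAS G12C (50 nM) in Tris pH 7.5, 100 mM NaCl, 5 mM MgCl2, 10% DMSO. Compound, KRAS, RBD and detection reagents each added sequentially with 1 h room-temperature incubations; 10-point titration; excitation 320 nm, emission 615 nm; activity as % of DMSO; IC50 derived.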

SMILES	GppNHp-KRAS G12C percent of modification [1]	GTP-KRAS G12C percent of modification [2]	pIC50 [3]
C=CC(=O)N1CC[C@@H](N(C)c2nc(OC[C@@H]3C[C@@H](OC)CN3CC)nc3c(F)c(-c4ccc(F)c5sc(N)c(C#N)c45)c(Cl)cc23)[C@@H]1C [Compound 100]	A (percent of modification ≥70%)	C (10%≤percent of modification <50%)	> 6.30
C=CC(=O)N1CC[C@@H](N(CC)c2nc(OC[C@@H]3CC4(CC4)CN3C)nc3c(F)c(-c4ccc(F)c5sc(N)c(C#N)c45)c(Cl)cc23)[C@H]1C [Compound 75]	A (percent of modification ≥70%)	A (percent of modification ≥70%)	> 6.30
C=CC(=O)N1CC[C@@H](N(C)c2nc(OC[C@@H]3CC4(CC4)CN3CC)nc3c(F)c(-c4ccc(F)c5sc(N)c(C#N)c45)c(Cl)cc23)[C@@H]1C [Compound 92]	A (percent of modification ≥70%)	B (50≤percent of modification <70%)	> 6.30
C=CC(=O)N1CC[C@@H](N(CC)c2nc(OC[C@@]34CCCN3C[C@H](F)C4)nc3c(F)c(-c4ccc(F)c5sc(N)c(C#N)c45)c(C(F)(F)F)cc23)[C@H]1CC [Compound 39]	C (10%≤percent of modification <50%)	C (10%≤percent of modification <50%)	> 6.30
C=CC(=O)N1CC[C@@H](N(C)c2nc(OC[C@@H]3CC4(CC4)CN3C)nc3c(F)c(-c4ccc(F)c5sc(N)c(C#N)c45)c(Cl)cc23)[C@H]1C [Compound 64]	B (50≤percent of modification <70%)	B (50≤percent of modification <70%)	> 6.30
C=CC(=O)N1CC[C@@H](N(C)c2nc(OC[C@@H]3C[C@@H](F)CN3C)nc3c(F)c(-c4ccc(F)c5sc(N)c(C#N)c45)c(Cl)cc23)[C@H]1C [Compound 61]	C (10%≤percent of modification <50%)	C (10%≤percent of modification <50%)	> 6.30
C=CC(=O)N1CC[C@@H](N(C)c2nc(OC[C@@]34CCCN3C[C@H](F)C4)nc3c(F)c(-c4ccc(F)c5oc(N)c(C#N)c45)c(C(F)(F)F)cc23)[C@H]1C [Compound 90]	B (50≤percent of modification <70%)	C (10%≤percent of modification <50%)	> 6.30
C=CC(=O)N1CC[C@@H](N(C)c2nc(OC[C@@H]3CCCN3C)nc3c(F)c(-c4ccc(F)c5sc(N)c(C#N)c45)c(Cl)cc23)[C@H]1C [Compound 59]	A (percent of modification ≥70%)	A (percent of modification ≥70%)	> 6.30
C=CC(=O)N1CC[C@@H](N(CC)c2nc(OC[C@@]34CCCN3C[C@H](F)C4)nc3cc(-c4ccc(F)c5sc(N)c(C#N)c45)c(F)cc23)[C@@H]1CC [Compound 41]	D (percent of modification <10%)	D (percent of modification <10%)	5.30 to 6.30
C=CC(=O)N1CC[C@@H](N(C)c2nc(OC[C@@H]3C[C@@H](F)CN3C)nc3c(F)c(-c4ccc(F)c5sc(N)c(C#N)c45)c(C(F)(F)F)cc23)[C@H]1C [Compound 55]	A (percent of modification ≥70%)	A (percent of modification ≥70%)	> 6.30
C=CC(=O)N1CC[C@@H](N(C)c2nc(OC[C@@]34CCCN3C[C@H](F)C4)nc3cc(-c4ccc(F)c5sc(N)c(C#N)c45)c(C#N)cc23)[C@H]1CC [Compound 42]	A (percent of modification ≥70%)	A (percent of modification ≥70%)	> 6.30
C=CC(=O)N1CC[C@@H](N(CC)c2nc(OC[C@@H]3C[C@@H](OC)CN3C)nc3c(F)c(-c4ccc(F)c5sc(N)c(C#N)c45)c(Cl)cc23)[C@H]1C [Compound 73]	B (50≤percent of modification <70%)	C (10%≤percent of modification <50%)	> 6.30
C=CC(=O)N1CC[C@@H](N(C)c2nc(OCC3(CN4CCOCC4)CC3)nc3c(F)c(-c4ccc(F)c5sc(N)c(C#N)c45)c(C(F)(F)F)cc23)[C@H]1C [Compound 87]	C (10%≤percent of modification <50%)	C (10%≤percent of modification <50%)	> 6.30
C=CC(=O)N1CCC(N(C)c2nc(OC[C@@H]3CCCN3C3CC3)nc3c(F)c(-c4ccc(F)c5sc(N)c(C#N)c45)c(C(F)(F)F)cc23)[C@H]1C (stereo partly drawn) [Compound 1]	C (10%≤percent of modification <50%)	C (10%≤percent of modification <50%)	> 6.30
C=CC(=O)N1CC[C@@H](N(CC)c2nc(OC[C@@H]3CCCN3C)nc3c(F)c(-c4ccc(F)c5sc(N)c(C#N)c45)c(C(F)(F)F)cc23)[C@H]1C [Compound 66]	A (percent of modification ≥70%)	A (percent of modification ≥70%)	> 6.30
C=CC(=O)N1CC[C@@H](N(C)c2nc(OC[C@@]34CCCN3C[C@H](F)C4)nc3c(F)c(-c4ccc(F)c5sc(N)c(C#N)c45)c(Cl)cc23)[C@@H]1C (atropisomer, axis not shown) [Compound 68]	A (percent of modification ≥70%)	A (percent of modification ≥70%)	> 6.30
C=CC(=O)N1CC[C@@H](N(C)c2nc(N3CC(N(C)C)C3)nc3c(F)c(-c4ccc(F)c5sc(N)c(C#N)c45)c(C(F)(F)F)cc23)[C@H]1C [Compound 80]	B (50≤percent of modification <70%)	C (10%≤percent of modification <50%)	> 6.30
C=CC(=O)N1CC[C@@H](N(CC)c2nc(OC[C@@H]3CCCN3C)nc3c(F)c(-c4ccc(F)c5sc(N)c(C#N)c45)c(Cl)cc23)[C@H]1C [Compound 58]	A (percent of modification ≥70%)	A (percent of modification ≥70%)	> 6.30
C=CC(=O)N1CC[C@@H](N(C)c2nc(OC[C@@]34CCCN3C[C@H](F)C4)nc3c(F)c(-c4nc(N)cc(C)c4C(F)(F)F)c(C(F)(F)F)cc23)[C@@H]1C [Compound 91]	A (percent of modification ≥70%)	C (10%≤percent of modification <50%)	> 6.30
C=CC(=O)N1CC[C@@H](N(C)c2nc(OC[C@@]34CCCN3C[C@H](F)C4)nc3c(F)c(-c4ccc(F)c5sc(N)c(C#N)c45)c(Cl)cc23)[C@@H]1C (atropisomer, axis not shown) [Compound 69]	D (percent of modification <10%)	D (percent of modification <10%)	5.30 to 6.30
C=CC(=O)N1CC[C@@H](N(CC)c2nc(OC[C@@H]3CC4(CC4)CN3C)nc3c(F)c(-c4ccc(F)c5sc(N)c(C#N)c45)c(C(F)(F)F)cc23)[C@H]1C [Compound 65]	A (percent of modification ≥70%)	A (percent of modification ≥70%)	> 6.30
C=CC(=O)N1CC[C@@H](N(C)c2nc(OC[C@@H]3CC4(CC4)CN3CC)nc3c(F)c(-c4ccc(F)c5sc(N)c(C#N)c45)c(C(F)(F)F)cc23)[C@@H]1C [Compound 95]	A (percent of modification ≥70%)	B (50≤percent of modification <70%)	> 6.30
C=CC(=O)N1CC[C@@H](N(CC)c2nc(OC[C@@H]3C[C@@H](OC)CN3C)nc3c(F)c(-c4ccc(F)c5sc(N)c(C#N)c45)c(C(F)(F)F)cc23)[C@H]1C [Compound 45, 4-(4-(((2R,3R)-1-acryloyl-2-methylpyrrolidin-3-yl)(ethyl)amino)-8-fluoro-2-(((2S,4R)-4-methoxy-1-methylpyrrolidin-2-yl)methoxy)-6-(trifluoromethyl)quinazolin-7-yl)-2-amino-7-fluorobenzo[b]thiophene-3-carbonitrile]	A (percent of modification ≥70%)	B (50≤percent of modification <70%)	> 6.30
